From paper PMC9120017, “Inhibition mechanism of the chloride channel TMEM16A by the pore blocker 1PBC” (Nature Communications, 2022)
Like-named read-outs stand apart in the source and are kept apart here.

Target: T1, mouse TMEM16A mutant I512A (Mus musculus, UniProt Q8BHY3, I512A)
T1 construct: expressed in transfected cells; host or cells: HEK293T
T1 sequence (Q8BHY3 1-960 I512A): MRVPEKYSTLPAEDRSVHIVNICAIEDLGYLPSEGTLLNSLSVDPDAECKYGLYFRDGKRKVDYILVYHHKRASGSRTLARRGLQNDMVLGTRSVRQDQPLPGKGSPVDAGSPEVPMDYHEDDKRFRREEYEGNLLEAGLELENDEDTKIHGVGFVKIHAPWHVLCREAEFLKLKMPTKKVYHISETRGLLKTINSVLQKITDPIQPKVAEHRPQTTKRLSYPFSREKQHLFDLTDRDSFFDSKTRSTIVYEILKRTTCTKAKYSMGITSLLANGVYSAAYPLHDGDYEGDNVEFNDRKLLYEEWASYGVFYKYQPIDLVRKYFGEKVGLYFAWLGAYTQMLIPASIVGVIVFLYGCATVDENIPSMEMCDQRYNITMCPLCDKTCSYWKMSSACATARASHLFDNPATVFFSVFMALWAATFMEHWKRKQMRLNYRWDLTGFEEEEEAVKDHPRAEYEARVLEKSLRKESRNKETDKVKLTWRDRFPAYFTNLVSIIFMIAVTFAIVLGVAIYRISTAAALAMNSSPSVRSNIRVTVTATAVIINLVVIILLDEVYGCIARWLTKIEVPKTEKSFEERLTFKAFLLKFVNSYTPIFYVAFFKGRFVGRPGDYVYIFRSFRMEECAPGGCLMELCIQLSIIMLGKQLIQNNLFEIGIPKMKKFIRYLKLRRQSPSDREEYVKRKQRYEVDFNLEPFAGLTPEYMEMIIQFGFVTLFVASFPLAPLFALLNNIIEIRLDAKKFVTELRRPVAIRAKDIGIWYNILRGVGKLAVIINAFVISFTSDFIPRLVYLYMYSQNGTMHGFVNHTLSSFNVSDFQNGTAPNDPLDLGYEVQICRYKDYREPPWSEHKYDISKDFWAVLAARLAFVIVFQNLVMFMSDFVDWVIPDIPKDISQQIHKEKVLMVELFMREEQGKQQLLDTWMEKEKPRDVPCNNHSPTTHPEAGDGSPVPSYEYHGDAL
Test: Inside-out patch recording of 1PBC block, mutant I512A
Assay type: cell-based
Details: for remaining activity at 30 µM: 1PBC 30; for remaining activity at 30 µM / remaining activity at 100 µM: read-out: fraction of unblocked current; for remaining activity at 100 µM: 1PBC 100
Procedure: HEK293T cells (ATCC CRL-1573) were maintained in Dulbecco’s modified Eagle’s medium (DMEM; Sigma-Aldrich) supplemented with 10 U ml^−1 penicillin, 0.1 mg ml^−1 streptomycin (Sigma-Aldrich), 2 mM L-glutamine (Sigma-Aldrich), and 10% FBS (Sigma-Aldrich) in a humidified atmosphere containing 5% CO2 at 37 °C. HEK293S GnTI^− cells (ATCC CRL-3022) were maintained in HyClone HyCell TransFx-H medium (GE Healthcare) supplemented with 10 U ml^−1 penicillin, 0.1 mg ml^−1 streptomycin, 4 mM L-glutamine, 0.15% poloxamer 188 (Sigma-Aldrich), and 1% FBS in an atmosphere containing 5% CO2 at 185 rpm at 37 °C. The ac splice variant of mouse TMEM16A (UniProt ID: Q8BHY3), mouse TMEM16B (UniProt ID: Q8CFW1), or mouse TMEM16F (UniProt ID: Q6P9J9) bearing a 3C cleavage site, a Venus YFP, a Myc tag, and a Streptavidin-binding peptide (SBP) downstream of the open reading frame in a modified pcDNA3.1 vector (Invitrogen) were used as described previously[21],[31]. Mutations were introduced using a modified QuikChange method[58] and were verified by sequencing.
HEK293T cells were transfected with 3–4 μg DNA per 6 cm Petri dish using the calcium phosphate co-precipitation method and were used within 24–96 h after transfection. Recordings were performed on inside-out patches excised from HEK293T cells expressing the construct of interest. Patch pipettes were pulled from borosilicate glass capillaries (O.D. 1.5 mm, I.D. 0.86 mm, Sutter Instrument) and were fire-polished with a microforge (Narishige) before use. Pipette resistance was typically 3–8 MΩ when filled with the recording solutions detailed below. Seal resistance was typically 4 GΩ or higher. Voltage-clamp recordings were made using Axopatch 200B, Digidata 1550, and Clampex 10.7 (Molecular Devices). Analog signals were filtered with the in-built 4-pole Bessel filter at 10 kHz and were digitized at 20 kHz. Solution exchange was achieved using a gravity-fed system through a theta glass pipette mounted on an ultra-fast piezo-driven stepper (Siskiyou). […] All recordings were performed at 20 °C.
A symmetrical ionic condition was used throughout. Stock solution with Ca^2+-EGTA contained 150 mM NaCl, 5.99 mM Ca(OH)2, 5 mM EGTA, and 10 mM HEPES at pH 7.40. Stock solution with EGTA contained 150 mM NaCl, 5 mM EGTA, and 10 mM HEPES at pH 7.40. Free Ca^2+ concentrations were adjusted by mixing the stock solutions at the required ratios calculated using the WEBMAXC program (http://web.stanford.edu/~cpatton/webmaxcS.htm). Patch pipettes were filled with the stock solution with Ca^2+-EGTA, which has a free Ca^2+ concentration of 1 mM. 1PBC (ChemBridge) stock was reconstituted in anhydrous DMSO (Sigma-Aldrich) at 100 mM and stored at −20 °C. Working solutions with 1PBC were prepared by serial dilution. Unless otherwise stated, experiments were performed at a saturating Ca^2+ concentration as shown in Supplementary Table 1 and the primary data were corrected for current rundown as described previously[21],[25].
Concentration-response relations, obtained from the ratio of the I-V plots before and after the application of the blocker, were fitted to the Hill equation,1 I/Imax=1/1+IC50/[blocker]^h where I/Imax is the normalized current responses, IC50 defines the concentration at which inhibition is at its half-maximum, and h is the Hill coefficient.

`N#Cc1c(C(F)(F)F)cc(O)n2c1nc1ccccc12` [1PBC] gave a remaining activity at 30 µM (-60 mV) of 62.3%, a remaining activity at 30 µM (-80 mV) of 65.6% and a remaining activity at 30 µM (-100 mV) of 68.2%. It also gave a remaining activity at 30 µM (-120 mV) of 70.8%, a remaining activity at 30 µM (-140 mV) of 72% and a remaining activity at 100 µM (0 mV) of 23.3%. It also gave a remaining activity at 100 µM (20 mV) of 19.1%, a remaining activity at 100 µM (40 mV) of 18.1% and a remaining activity at 100 µM (60 mV) of 15.6%. It also gave a remaining activity at 100 µM (80 mV) of 14%, a remaining activity at 100 µM (100 mV) of 13.1% and a remaining activity at 100 µM (120 mV) of 12.2%. It also gave a remaining activity at 100 µM (140 mV) of 12.1%, a remaining activity at 100 µM (-20 mV) of 27.5% and a remaining activity at 100 µM (-40 mV) of 29.4%. For the same compound, the remaining activity at 100 µM (-60 mV) was 32.8%, the remaining activity at 100 µM (-80 mV) was 36% and the remaining activity at 100 µM (-100 mV) was 39.7%. The remaining activity at 100 µM (-120 mV) was 42.4%, the remaining activity at 100 µM (-140 mV) was 45.3% and the IC50 (20 mV, 2 µM Ca2+) was 25.5 µM. For the same compound, the IC50 (40 mV, 2 µM Ca2+) was 21.8 µM, the IC50 (60 mV, 2 µM Ca2+) was 19 µM and the “log-fold IC50 (change of mutant vs WT)” value (80 mV) was 0.8662. For the same compound, the IC50 (80 mV, 2 µM Ca2+) was 17 µM, the IC50 (100 mV, 2 µM Ca2+) was 15.9 µM and the IC50 (120 mV, 2 µM Ca2+) was 15.8 µM. The IC50 (140 mV, 2 µM Ca2+) was 16.6 µM, the IC50 (-20 mV, 2 µM Ca2+) was 37.1 µM and the IC50 (-40 mV, 2 µM Ca2+) was 42.9 µM. For the same compound, the IC50 (-60 mV, 2 µM Ca2+) was 50.1 µM, the IC50 (-80 mV, 2 µM Ca2+) was 57.9 µM and the IC50 (-100 mV, 2 µM Ca2+) was 66.1 µM. The IC50 (-120 mV, 2 µM Ca2+) was 73.6 µM, the IC50 (-140 mV, 2 µM Ca2+) was 80.9 µM and the IC50 (I512A, V 0 mV) was 30.7 µM. It also gave an IC50 (I512A, V 20 mV) of 25.5 µM, an IC50 (I512A, V 40 mV) of 21.8 µM and an IC50 (I512A, V 60 mV) of 19 µM. It also gave an IC50 (I512A, V 80 mV) of 17 µM, an IC50 (I512A, V 100 mV) of 15.9 µM and an IC50 (I512A, V 120 mV) of 15.8 µM. It also gave an IC50 (I512A, V 140 mV) of 16.6 µM, an IC50 (I512A, V -20 mV) of 37.1 µM and an IC50 (I512A, V -40 mV) of 42.9 µM. For the same compound, the IC50 (I512A, V -60 mV) was 50.1 µM, the IC50 (I512A, V -80 mV) was 57.9 µM and the IC50 (I512A, V -100 mV) was 66.1 µM. The IC50 (I512A, V -120 mV) was 73.6 µM and the IC50 (I512A, V -140 mV) was 80.9 µM.
